Assays:
Type in all cases: in vivo, human
[1] = test system: subjects with mild-to-moderate Alzheimer's disease; test: Phase 2a Clinical Study A: ADAS-cog (11-item) total score; settings: for ADAS-cog (11-Item) Total Score Observed Mean (SD) Final: final evaluation, 12-week treatment; for efficacy in treatment of core symptoms of Alzheimer's disease in human patients (summary in words): Phase 2a study, dose not stated
Procedure: (§1) A Phase 2a proof-of-concept (POC) study in subjects with mild-to-moderate dementia of Alzheimer type was conducted. The study was a randomized, double-blind, placebo- and active-controlled, multicenter study designed to evaluate the efficacy and safety of Compound A (ABT-126) in subjects diagnosed with mild-to-moderate Alzheimer's disease, defined as meeting National Institute of Neurological and Communicative Disorders and Stroke/Alzheimer's Disease and Related Disorders Association (NINCDS/ADRDA) criteria for probable AD. […] Subjects were randomized in an equal ratio to one of four treatment groups (placebo, 5 mg Compound A, 25 mg Compound A, or donepezil) for a 12-week treatment period. The primary efficacy measure was the Alzheimer's Disease Assessment Scale—cognitive subscale (ADAS-Cog). Subjects were generally in good health and any chronic medical conditions were stable during the time of screening. Subjects were not taking other medication for Alzheimer's disease.
(§2) The study was a Phase 2, randomized, double-blind, placebo- and active-controlled, multicenter study designed to evaluate the dose-response relationship and safety of two doses of Compound A in subjects diagnosed with mild to moderate AD, defined as meeting NINCDS/ADRDA criteria for probable AD.
(§3) The study consisted of a Screening Period of up to 28 days, a 12-week treatment period, and a post-treatment period. The screening period consisted of three visits: Screening Visit 1, Screening Visit 2, and Day −1. Upon completion of Day −1 procedures, eligible subjects were randomized through an Interactive Voice Response/Interactive Web-Based (IVR/IWB) system. Subjects were randomized in an equal ratio to one of four treatment groups (placebo, 5 mg Compound A, 25 mg Compound A, or donepezil).
(§4) Each subject was instructed to take study drug once-daily in the morning for 12 weeks. Subjects randomized to donepezil took 5 mg donepezil QD for the first 4 weeks and began 10 mg donepezil QD at Week 4 through the remainder of the study. The subject and investigator were blinded to the treatment assignment throughout the study.
(§5) Subjects completed 4 visits during the treatment period at Week 2, Week 4, Week 8 and Week 12. Subjects returned to the study site for a follow-up visit approximately 2 weeks after the Week 12 or premature discontinuation visit for a safety evaluation. In addition, study site personnel contacted each subject's caregiver by telephone approximately 30 days after the subject's last dose of study drug to ascertain the subject's safety status.
(§6) The primary efficacy measure was the Alzheimer's Disease Assessment Scale-cognitive subscale (ADAS-cog). The ADAS-cog was designed to assess the cognitive impairments most common in AD. The ADAS-cog is a subscale of the ADAS, which focuses on cognitive functioning and memory. Two versions were used in the study: an 11-item version and an expanded (13-item) version. The 11-item version of the ADAS-cog was the primary endpoint measure in this study. ADAS-Cog (13-item) was administered throughout the study and the primary efficacy variable was considered the change from baseline to final evaluation on the ADAS-cog total score (11-item).
The 11-item ADAS-cog includes the following tests: Word Recall, Commands, Constructional Praxis, Naming Objects and Fingers, Ideational Praxis, Orientation, Word Recognition, Remembering Test Instructions, Comprehension of Spoken Language, Spoken Language Ability, and Word Finding Difficulty. The total score of the 11-item ADAS-cog ranges from 0 to 70, with a higher score representing greater impairment.
The primary efficacy variable was the change from baseline to the final observation on the ADAS-cog (11-item) total score. The primary efficacy analysis was carried out using an ANCOVA model with treatment and study site as the main effects and baseline score as the covariate. […]

[2] = test system: subjects with mild-to-moderate Alzheimer's disease; test: Phase 2a Clinical Study A: ADAS-cog (13-item) total score; settings: for ADAS-cog (13-Item) Total Score Observed Mean (SD) Final: final evaluation, 12-week treatment
Procedure: as §1, §2, §3, §4, §6
The 13-item ADAS-cog is comprised of the 11-item ADAS-cog with two additional items (Delayed Word Recall and a Number Cancellation Test) that are designed to assess attention and concentration. The Delayed Word Recall Test (range from 0 to 10) was an addition to the Word Recall Test to enhance sensitivity of the instrument in assessing cognition functioning on patients with mild AD. The Number Cancellation Test (range from 0 to 5) was reliable and sensitive to a broad range of dementia severity, and was recommended as a useful addition to the 11-item ADAS-cog. The total score of the 13-item ADAS-cog ranges from 0 to 85, with a higher score representing greater impairment. The ADAS-cog (13-item) was administered by a certified rater at Screening Visit 1, Screening Visit 2, and Day-1, as well as Weeks 4, 8, and 12 during the study.

[3] = test system: subjects with mild-to-moderate Alzheimer's disease; test: Phase 2a Clinical Study A: safety and tolerability
Procedure: as §1, §2, §4, §5

[4] = 5 mg QD, ANCOVA, baseline to final evaluation
[5] = 25 mg QD, ANCOVA, baseline to final evaluation

SMILES: c1ccc(-c2nnc(O[C@@H]3C4CC5C[C@H]3CN(C5)C4)s2)cc1 [Compound A, (4s)-4-(5-phenyl-1,3,4-thiadiazol-2-yloxy)-1-azatricyclo[3.3.1.1^3,7]decane]
- ADAS-cog (11-Item) Total Score Difference From Placebo LS Mean (SE) of Difference [1, 4]: −0.08
- ADAS-cog (11-Item) Total Score LS Mean (SE) of Change [1, 4]: −0.76 (0.64)
- ADAS-cog (11-Item) Total Score Observed Mean (SD) change ([1]; 5 mg QD, Change to Week 4): −0.36 (4.01)
- ADAS-cog (11-Item) Total Score Observed Mean (SD) change ([1]; 5 mg QD, Change to Week 8): −0.58 (4.83)
- ADAS-cog (11-Item) Total Score Observed Mean (SD) change ([1]; 5 mg QD, Change to Week 12): −1.01 (5.50)
- ADAS-cog (11-Item) Total Score Difference From Placebo LS Mean (SE) of Difference ([1]; 5 mg QD, MMRM, Week 4): 0.03 (0.65)
- ADAS-cog (11-Item) Total Score LS Mean (SE) of Change from Baseline ([1]; 5 mg QD, MMRM, Week 4): −0.06 (0.47)
- ADAS-cog (11-Item) Total Score Difference From Placebo LS Mean (SE) of Difference ([1]; 5 mg QD, MMRM, Week 8): 0.07 (0.81)
- ADAS-cog (11-Item) Total Score LS Mean (SE) of Change from Baseline ([1]; 5 mg QD, MMRM, Week 8): −0.49 (0.57)
- ADAS-cog (11-Item) Total Score Difference From Placebo LS Mean (SE) of Difference ([1]; 5 mg QD, MMRM, Week 12): 0.03 (0.90)
- ADAS-cog (11-Item) Total Score LS Mean (SE) of Change from Baseline ([1]; 5 mg QD, MMRM, Week 12): −0.80 (0.64)
- ADAS-cog (11-Item) Total Score Observed Mean (SD) Final ([1]; 5 mg QD): 24.30 (10.50)
- cognition relative to placebo, ADAS-cog (11-item) MMRM (in words) ([1]; 5 mg, over the 12 weeks): no improvement in cognition relative to placebo
- cognition relative to placebo, ADAS-cog (11-item) MMRM (in words) ([1]; 25 mg): trend toward statistical significance at Weeks 4 and 8 in cognitive improvement
- ADAS-cog (11-Item) Total Score Difference From Placebo LS Mean (SE) of Difference [1, 5]: −1.19
- ADAS-cog (11-Item) Total Score LS Mean (SE) of Change [1, 5]: −1.86 (0.64)
- ADAS-cog (11-Item) Total Score Observed Mean (SD) change ([1]; 25 mg QD, Change to Week 4): −1.18 (4.29)
- ADAS-cog (11-Item) Total Score Observed Mean (SD) change ([1]; 25 mg QD, Change to Week 8): −1.94 (5.12)
- ADAS-cog (11-Item) Total Score Observed Mean (SD) change ([1]; 25 mg QD, Change to Week 12): −2.12 (5.53)
- ADAS-cog (11-Item) Total Score Difference From Placebo LS Mean (SE) of Difference ([1]; 25 mg QD, MMRM, Week 4): −0.84 (0.65)
- ADAS-cog (11-Item) Total Score LS Mean (SE) of Change from Baseline ([1]; 25 mg QD, MMRM, Week 4): −0.94 (0.46)
- ADAS-cog (11-Item) Total Score Difference From Placebo LS Mean (SE) of Difference ([1]; 25 mg QD, MMRM, Week 8): −1.11 (0.82)
- ADAS-cog (11-Item) Total Score LS Mean (SE) of Change from Baseline ([1]; 25 mg QD, MMRM, Week 8): −1.67 (0.58)
- ADAS-cog (11-Item) Total Score Difference From Placebo LS Mean (SE) of Difference ([1]; 25 mg QD, MMRM, Week 12): −1.14 (0.91)
- ADAS-cog (11-Item) Total Score LS Mean (SE) of Change from Baseline ([1]; 25 mg QD, MMRM, Week 12): −1.97 (0.65)
- ADAS-cog (11-Item) Total Score Observed Mean (SD) Final ([1]; 25 mg QD): 26.61 (12.09)
- efficacy (in words) ([1]; 25 mg dose, 12 weeks): Evidence for efficacy
- efficacy in treatment of core symptoms of Alzheimer's disease in human patients (summary in words) [1]: signal for efficacy
- efficacy in treatment of core symptoms of Alzheimer's disease in human patients (summary in words) ([1]; listed as ABT-126): statistically significant efficacy compared to placebo
- ADAS-cog (13-Item) Total Score Difference From Placebo LS Mean (SE) of Difference [2, 4]: −0.13 (1.03)
- ADAS-cog (13-Item) Total Score LS Mean (SE) of Change [2, 4]: −0.90 (0.73)
- ADAS-cog (13-Item) Total Score Observed Mean (SD) change ([2]; 5 mg QD, Change to Week 4): −0.67 (4.31)
- ADAS-cog (13-Item) Total Score Observed Mean (SD) change ([2]; 5 mg QD, Change to Week 8): −0.76 (5.88)
- ADAS-cog (13-Item) Total Score Observed Mean (SD) change ([2]; 5 mg QD, Change to Week 12): −1.20 (6.36)
- ADAS-cog (13-Item) Total Score Difference From Placebo LS Mean (SE) of Difference ([2]; 5 mg QD, MMRM, Week 4): −0.30 (0.73)
- ADAS-cog (13-Item) Total Score LS Mean (SE) of Change from Baseline ([2]; 5 mg QD, MMRM, Week 4): −0.30 (0.52)
- ADAS-cog (13-Item) Total Score Difference From Placebo LS Mean (SE) of Difference ([2]; 5 mg QD, MMRM, Week 8): −0.29 (0.95)
- ADAS-cog (13-Item) Total Score LS Mean (SE) of Change from Baseline ([2]; 5 mg QD, MMRM, Week 8): −0.64 (0.67)
- ADAS-cog (13-Item) Total Score Difference From Placebo LS Mean (SE) of Difference ([2]; 5 mg QD, MMRM, Week 12): 0.15 (1.04)
- ADAS-cog (13-Item) Total Score LS Mean (SE) of Change from Baseline ([2]; 5 mg QD, MMRM, Week 12): −0.99 (0.73)
- ADAS-cog (13-Item) Total Score Observed Mean (SD) Final ([2]; 5 mg QD): 35.92 (12.07)
- ADAS-cog (13-Item) Total Score Difference From Placebo LS Mean (SE) of Difference [2, 5]: −1.83 (1.05)
- ADAS-cog (13-Item) Total Score LS Mean (SE) of Change [2, 5]: −2.60 (0.75)
- ADAS-cog (13-Item) Total Score Observed Mean (SD) change ([2]; 25 mg QD, Change to Week 4): −2.38 (4.72)
- ADAS-cog (13-Item) Total Score Observed Mean (SD) change ([2]; 25 mg QD, Change to Week 8): −2.78 (6.05)
- ADAS-cog (13-Item) Total Score Observed Mean (SD) change ([2]; 25 mg QD, Change to Week 12): −2.89 (6.77)
- ADAS-cog (13-Item) Total Score Difference From Placebo LS Mean (SE) of Difference ([2]; 25 mg QD, MMRM, Week 4): −2.13 (0.75)
- ADAS-cog (13-Item) Total Score LS Mean (SE) of Change from Baseline ([2]; 25 mg QD, MMRM, Week 4): −2.13 (0.53)
- ADAS-cog (13-Item) Total Score Difference From Placebo LS Mean (SE) of Difference ([2]; 25 mg QD, MMRM, Week 8): −2.06 (0.98)
- ADAS-cog (13-Item) Total Score LS Mean (SE) of Change from Baseline ([2]; 25 mg QD, MMRM, Week 8): −2.42 (0.70)
- ADAS-cog (13-Item) Total Score Difference From Placebo LS Mean (SE) of Difference ([2]; 25 mg QD, MMRM, Week 12): −1.61 (1.08)
- ADAS-cog (13-Item) Total Score LS Mean (SE) of Change from Baseline ([2]; 25 mg QD, MMRM, Week 12): −2.74 (0.77)
- ADAS-cog (13-Item) Total Score Observed Mean (SD) Final ([2]; 25 mg QD): 38.08 (13.81)
- tolerability in subjects with AD ([3]; 5 mg and 25 mg QD (doses up to 25 mg QD), 12 weeks): generally well tolerated
- changes in vital signs, ECG parameters or laboratory assessments ([3]; 5 mg and 25 mg QD, 12 weeks): no consistent clinically meaningful changes
- serious adverse events considered by the investigator to be related ([3]; 5 mg and 25 mg QD, 12 weeks): none that were considered by the investigator to be related
- dose dependence of adverse events ([3]; 25 mg group): no evidence for a dose-dependent increase in adverse events

Source: patent US8802693B1, “Azaadamantane derivatives and methods of use” (priority 2011, dated 2014)
